Tests used:
Format in all cases: cell-based, human
[1] = tested on: MTX/PTX treated, SSEA4 positive cells; assay: Neural differentiation (FIG. 30); conditions: neural differentiation medium, laminin coated plates, 10-15-days
Method: For neural differentiation, MTX/PTX treated, SSEA4 positive cells were initially grown onto Matrigel-coated 6-well plates in mTeSR1 medium. To induce neural differentiation, the cells were dissociated and passaged onto laminin (20 μg ml−1; Sigma-Aldrich, USA) coated plates and grown in Neurobasal medium (Thermo Fisher Scientific, USA) or RPMI1640 medium (Gibco, USA) for 10-15-days at 37° C./5% CO2. The medium was supplemented with 1% serum free B-27 (Gibco, USA), 1% Glutamax (Gibco, USA), 1% NEAA (Gibco, USA), and 1% penicillin/streptomycin (Gibco, USA).

[2] = tested on: Sox2 and Oct4 (stem cell markers); assay: qRT-PCR relative transcript levels of stem cell markers (FIG. 21A); conditions: cell line not given, vs control cells
Method: To validate microarray results, quantitative 2-step RT-PCR was performed. One microgram of total RNA was reverse transcribed to first-strand cDNA with the Qiagen cDNA Synthesis Kit (Qiagen), and this cDNA was subsequently used as a template for quantitative PCR with gene-specific primers. The ubiquitous β-actin gene served as a control for constitutive gene expression. The quantitative RT-PCR (qRT-PCR) reactions were performed using Power Sybr Green PCR Master Mix (Thermo Fisher Scientific) on a CFX96 Touch Real-Time PCR Detection System (Bio-Rad, Hercules, CA, USA). Relative expression levels (2^−ΔCt) were calculated according to the Livak and Schmittgen method (40). Expression levels of each gene were compared with the expression level of actin.

[3] = Cardiomyocyte differentiation, correlative immunostaining (FIG. 31); conditions: MTX Treated; vs H1 positive and untreated negative control
Method: (§1) MTX/PTX treated and SSEA4 positive cells were maintained on Matrigel-coated 6-well plates in mTeSR1 medium. To induce differentiation, cells with EB-like morphology were dissociated with Accutase (Invitrogen) at 37° C. for 5 minutes and then single cell suspension was seeded onto a Matrigel-coated cell-culture dish at 100,000 cell/cm^2 in mTeSR1 supplemented with 5 μM ROCK inhibitor (Y-27632) for 24 hours. The cells then were cultured in mTeSR1 medium, which was changed daily. Next, 8 μl of 36 mM CHIR99021 were added into 24 ml RPMI/B27-insulin medium to make 12 μM CHIR99021 RPMI/B27-insulin medium and 2-ml of this were added to each well after the old mTeSR1 medium was removed. Exactly 24 hours after adding CHIR, the medium was replaced with 2 ml room temperature RPMI/B27-insulin. The plate was put back into the 37° C., 5% CO2 incubator. 72 hours post addition of CHIR99021, 1 ml medium from each well was removed and the remaining 1-ml was supplemented with 1-ml RPMI/B27-insulin with 5 μM IWP2 (WNT pathway inhibitor). After 48 hours, the medium was replaced with fresh RPMI/B27-insulin and this was incubated at 37° C., 5% CO2 incubator. After this, every 2-days, the old medium was removed from each well of the 12-well plate and 2 ml/well room temperature RPMI/B27 medium was added and incubated at 37° C., 5% CO2. […]

[4] = tested on: 293T cells; assay: as above; conditions: MTX Treated; vs H1 positive and untreated negative control
Method: as §1

Row | SMILES | differentiation into neural cells [1] | relative transcripts level of Oct4 [2] | relative transcripts level of Sox2 [2] | cardiac muscle cells in the differentiation medium [3] | cardiac muscle cells in the differentiation medium [4]
1 | Nc1nc2[nH]cc(CCc3ccc(C(=O)N[C@@H](CCC(=O)O)C(=O)O)cc3)c2c(=O)[nH]1 [PTX, pemetrexed] | can differentiate into neural cells |  |  |  | 
2 | CN(Cc1cnc2nc(N)nc(N)c2n1)c1ccc(C(=O)N[C@@H](CCC(=O)O)C(=O)O)cc1 [MTX, methotrexate] | can differentiate into neural cells | significantly higher | significantly higher | had cardiac muscle cells | had cardiac muscle cells

— US20250171744A1, “METHODS OF REPROGRAMMING SOMATIC CELLS AND MATERIALS RELATED THERETO” (CITY OF HOPE, priority 2019, published 2025)
